According to patent US9193898B2, “Environmentally friendly dispersion system used in the preparation of inverse emulsion polymers” (priority 2011, dated 2015):

Assays:
[1] = test system: most sensitive marine species (typically Skeletonema); assay: Toxicity to the most sensitive marine species (EC50); conditions: environmental profile of dispersion system components
Description: (§1) With this in mind, it was desired to create an environmentally friendly oil phase system useful for making inverse emulsion polymers. The adopted definition of environmentally friendly are the rules that govern offshore chemical use in the North Sea. The environmental impact of a chemical is defined by three tests: bioaccumulation, biodegradation and toxicity. In order for a chemical to be used without restriction offshore in the North Sea it must satisfy two of the following three criteria: • 1. Biodegradation must be greater than 60%, if less than 20% it is automatically marked for substitution. • 2. Bioaccumulation as measured by octanol/water partitioning coefficient (log Po/w) must be below 3 (or have a molecular weight>700). • 3. Toxicity to the most sensitive marine species (typically Skeletonema) must be greater than LC50 or EC50 of 10 ppm.

[2] = Bioaccumulation as octanol/water partitioning coefficient (log Po/w); format: physicochemical
Description: as §1

[3] = Description: as §1, with “ppm. […]” for “ppm.”
An embodiment of the present invention is an environmentally friendly oil phase system comprising an organic solvent and lecithin. The immiscible organic solvent can be a hydrocarbon solvent that is aliphatic or at least one oil derived from one or more natural products, and are at least 60% biodegradable after 28 days as determined by the Organization for Economic Cooperation and Development, Procedure OECD 306, its text incorporated by reference. […]

[4] = cited from earlier work

Substance	Toxicity EC50 [1]	Bioaccumulation log Po/w [2]	Biodegradation, t = 28 days [3]	log P [4]
POE(5)-sorbitan monooleate	20 ppm	<3	52	–
sorbitan monooleate	–	–	–	> 3
POE(4)-sorbitan monostearate	165 ppm	<3	27	–
